Laboratory results as given in US8426429B2, “2-amino-quinazoline derivatives useful as inhibitors of β-secretase (BACE)” (Jansssen Pharmaceutica N.V., priority 2004, dated 2013).

Target: T1, β-secretase (BACE) (Homo sapiens, UniProt P56817)
T1 construct: purchased Panvera
Test: BACE FS1 % Inhibition Assay
Type: biochemical
How it was run: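 Percent inhibition per compound concentration was referenced to vehicle-treated enzyme and no-enzyme wells. Enzyme at a 4 μg/mL working stock plus compound was mixed for 20 min at room temperature before the FS1 substrate (300 μg/mL working stock) was added for a 1 h room-temperature reaction.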

T1 sequence (P56817 46-501): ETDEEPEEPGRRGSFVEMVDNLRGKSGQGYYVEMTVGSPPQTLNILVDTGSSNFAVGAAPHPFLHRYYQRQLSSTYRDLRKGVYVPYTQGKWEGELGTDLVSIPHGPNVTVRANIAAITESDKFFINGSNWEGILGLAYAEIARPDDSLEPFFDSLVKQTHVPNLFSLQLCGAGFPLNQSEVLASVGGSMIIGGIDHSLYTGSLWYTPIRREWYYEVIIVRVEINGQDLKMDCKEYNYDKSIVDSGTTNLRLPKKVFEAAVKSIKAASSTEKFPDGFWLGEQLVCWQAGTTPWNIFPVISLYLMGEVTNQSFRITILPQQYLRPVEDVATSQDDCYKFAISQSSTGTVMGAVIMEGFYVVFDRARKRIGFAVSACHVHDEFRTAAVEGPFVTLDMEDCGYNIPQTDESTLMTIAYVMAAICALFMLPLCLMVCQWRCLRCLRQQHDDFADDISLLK

| % Inhibition (FS) (0.3 μM test compound) | % Inhibition (FS) (1 μM test compound) | % Inhibition (FS) (3 μM test compound) | % Inhibition (FS) (0.3 μM test compound, 0.3 µM) | % Inhibition (FS) (1 μM test compound, 1 µM) | % Inhibition (FS) (3 μM test compound, 3 µM) | SMILES |
| --- | --- | --- | --- | --- | --- | --- |
| <30% | 36% | 98% | – | – | – | CCCC(CCC)C(=O)N1CCC(CN2Cc3cc(Oc4ccccc4)ccc3N=C2N)CC1 [Compound 526] |
| <30% | <30% | 51% | – | – | – | NC1=Nc2ccc(Oc3ccccc3)cc2CN1CC1CCN(C(=O)C23CC4CC(CC(C4)C2)C3)CC1 [Compound 527] |
| <30% | <30% | 41% | – | – | – | CC(C)[C@@H](CNC(=O)C1CCCCC1)N1Cc2cc(Oc3ccccc3)ccc2N=C1N [Compound 528] |
| <30% | <30% | 66% | – | – | – | NC1=Nc2ccc(Oc3c(F)cccc3F)cc2CN1CCC(=O)NC1C2CC3CC(C2)CC1C3 (stereo not drawn) [Compound 529] |
| <30% | <30% | 68% | – | – | – | CC1CCN(C(=O)CCCC(CCC(=O)N2CCC(C)CC2)N2Cc3cc(Oc4ccccc4)ccc3N=C2N)CC1 (stereo not drawn) [Compound 532] |
| <30% | <30% | <30% | – | – | – | CS(=O)(=O)Nc1ccccc1-c1ccc2c(c1)CN(CCNC(=O)C1CCCCC1)C(N)=N2 [Compound 539] |
| <30% | 30% | 84% | – | – | – | CSc1ccccc1-c1ccc2c(c1)CN(CCNC(=O)C1CCCCC1)C(N)=N2 [Compound 540] |
| <30% | <30% | <30% | – | – | – | CC(=O)Nc1ccccc1-c1ccc2c(c1)CN(CCNC(=O)C1CCCCC1)C(N)=N2 [Compound 541] |
| <30% | <30% | 73% | – | – | – | CC(C)(C)NS(=O)(=O)c1ccccc1-c1ccc2c(c1)CN(CCNC(=O)C1CCCCC1)C(N)=N2 [Compound 542] |
| <30% | <30% | <30% | – | – | – | NC(=O)c1ccccc1-c1ccc2c(c1)CN(CCNC(=O)C1CCCCC1)C(N)=N2 [Compound 543] |
| 32% | <30% | 51% | – | – | – | NC1=Nc2ccc(-c3ccccc3-c3ccccc3)cc2CN1CCNC(=O)C1CCCCC1 [Compound 544] |
| <30% | 30% | 71% | – | – | – | CN(C(=O)c1cccc(CN2Cc3cc([S+]([O-])c4ccccc4)ccc3N=C2N)c1)C1CCCCC1 (stereo not drawn) [Compound 549] |
| <30% | <30% | 67% | – | – | – | NC1=Nc2ccc(Oc3ccccc3)cc2CN1C1CCCCN(C(=O)C23CC4CC(CC(C4)C2)C3)C1 (stereo not drawn) [Compound 550] |
| <30% | <30% | <30% | – | – | – | NC1=Nc2ccc(Oc3ccccc3)cc2CN1C1CCCCN(C(=O)C2CCCCC2)C1 (stereo not drawn) [Compound 551] |
| <30% | <30% | 36% | – | – | – | CCCC(CCC)C(=O)N1CCCCC(N2Cc3cc(Oc4ccccc4)ccc3N=C2N)C1 (stereo not drawn) [Compound 552] |
| <30% | <30% | 49% | – | – | – | CC(C)[C@@H](CNC(=O)C12CC3CC(CC(C3)C1)C2)N1Cc2cc(Oc3ccccc3)ccc2N=C1N [Compound 553] |
| – | – | – | <30% | <30% | 42% | CCCC(CNC(=O)C1CCCCC1)N1Cc2cc(Oc3ccccc3)ccc2N=C1N (stereo not drawn) [Compound 554] |
| – | – | – | <30% | <30% | 46% | CCCC(CNC(=O)C12CC3CC(CC(C3)C1)C2)N1Cc2cc(Oc3ccccc3)ccc2N=C1N (stereo not drawn) [Compound 555] |
| <30% | <30% | <30% | – | – | – | CN(C(=O)CCC(CO)N1Cc2cc(Oc3ccccc3)ccc2N=C1N)C1CCCCC1 (stereo not drawn) [Compound 557] |
| <30% | <30% | <30% | – | – | – | CN(C(=O)c1ncoc1C(Cc1ccccc1)N1Cc2cc(Oc3ccccc3)ccc2N=C1N)C1CCCCC1 (stereo not drawn) [Compound 559] |
| 101% | 119% | 127% | – | – | – | CC(C)CC(=O)NC[C@@H](C(C)C)N1Cc2cc(Oc3ccccc3)ccc2N=C1N [Compound 563] |
| 112% | 119% | 129% | – | – | – | CC(C)CCC(=O)NC[C@@H](C(C)C)N1Cc2cc(Oc3ccccc3)ccc2N=C1N [Compound 564] |
| <30% | <30% | <30% | – | – | – | N#Cc1cccc(C(=O)NCCN2Cc3cc(-c4cncnc4)ccc3N=C2N)c1 [Compound 567] |
| <30% | <30% | <30% | – | – | – | CCCC=Cc1ccc2c(c1)CN(CCNC(=O)c1cccc(C#N)c1)C(N)=N2 [Compound 568] |
| <30% | <30% | <30% | – | – | – | CCCC(=O)NCCN1Cc2cc(-c3cncnc3)ccc2N=C1N [Compound 569] |

| % Inhibition (FS) (0.3 μM test compound) | % Inhibition (FS) (1 μM test compound) | % Inhibition (FS) (3 μM test compound) | % Inhibition (FS) (0.3 μM test compound, 0.3 µM) | % Inhibition (FS) (1 μM test compound, 1 µM) | % Inhibition (FS) (3 μM test compound, 3 µM) | SMILES |
| --- | --- | --- | --- | --- | --- | --- |
| <30% | <30% | <30% | – | – | – | CCCC(=O)NCCN1Cc2cc(-c3ccncc3)ccc2N=C1N [Compound 570] |
| <30% | <30% | <30% | – | – | – | CCCC=Cc1ccc2c(c1)CN(CCNC(=O)CCC)C(N)=N2 [Compound 571] |
| <30% | <30% | <30% | – | – | – | CC(C)(C)C(=O)NCCN1Cc2cc(-c3ccncc3)ccc2N=C1N [Compound 573] |
| <30% | <30% | <30% | – | – | – | CCCC=Cc1ccc2c(c1)CN(CCNC(=O)C(C)(C)C)C(N)=N2 [Compound 574] |
| <30% | <30% | <30% | – | – | – | NC1=Nc2ccc(-c3cncnc3)cc2CN1CCNC(=O)C1CCCCC1 [Compound 575] |
| <30% | <30% | <30% | – | – | – | NC1=Nc2ccc(-c3ccncc3)cc2CN1CCNC(=O)C1CCCCC1 [Compound 576] |
| <30% | <30% | <30% | – | – | – | CCCC=Cc1ccc2c(c1)CN(CCNC(=O)C1CCCCC1)C(N)=N2 [Compound 577] |
| <30% | <30% | <30% | – | – | – | CCCC=Cc1ccc2c(c1)CN(CCNC(=O)CC1CCCC1)C(N)=N2 [Compound 580] |
| <30% | <30% | <30% | – | – | – | CC(=O)c1cccc(-c2ccc3c(c2)CN(CCNC(=O)CC2CCCC2)C(N)=N3)c1 [Compound 582] |
| <30% | <30% | 56% | – | – | – | NC1=Nc2ccc(-c3cccc(C(F)(F)F)c3)cc2CN1CCNC(=O)CC1CCCC1 [Compound 584] |
| <30% | <30% | 59% | – | – | – | Cc1cc(C(=O)NCCN2Cc3cc(-c4ccccc4)ccc3N=C2N)c(C)o1 [Compound 586] |
| <30% | <30% | <30% | – | – | – | CCCC=Cc1ccc2c(c1)CN(CCNC(=O)c1cc(C)oc1C)C(N)=N2 [Compound 587] |
| <30% | <30% | <30% | – | – | – | CC(=O)c1cccc(-c2ccc3c(c2)CN(CCNC(=O)c2cc(C)oc2C)C(N)=N3)c1 [Compound 588] |
| <30% | <30% | <30% | – | – | – | Cc1cc(C(=O)NCCN2Cc3cc(-c4cccc(CO)c4)ccc3N=C2N)c(C)o1 [Compound 589] |
| <30% | <30% | <30% | – | – | – | Cc1cc(C(=O)NCCN2Cc3cc(-c4cccc(C(F)(F)F)c4)ccc3N=C2N)c(C)o1 [Compound 590] |
| <30% | <30% | <30% | – | – | – | CC(=O)Nc1ccc(C(=O)NCCN2Cc3cc(-c4ccccc4)ccc3N=C2N)cc1 [Compound 591] |
| <30% | <30% | <30% | – | – | – | CCCC=Cc1ccc2c(c1)CN(CCNC(=O)c1ccc(NC(C)=O)cc1)C(N)=N2 [Compound 592] |
| <30% | <30% | <30% | – | – | – | CC(=O)Nc1ccc(C(=O)NCCN2Cc3cc(-c4cccc(CO)c4)ccc3N=C2N)cc1 [Compound 593] |
| <30% | <30% | <30% | – | – | – | CC(=O)Nc1ccc(C(=O)NCCN2Cc3cc(-c4cccc(C(F)(F)F)c4)ccc3N=C2N)cc1 [Compound 594] |
| <30% | <30% | <30% | – | – | – | CCCC=Cc1ccc2c(c1)CN(CCNC(=O)Cc1ccccc1)C(N)=N2 [Compound 596] |
| <30% | <30% | 36% | – | – | – | CC(=O)c1cccc(-c2ccc3c(c2)CN(CCNC(=O)Cc2ccccc2)C(N)=N3)c1 [Compound 598] |
| <30% | <30% | 65% | – | – | – | NC1=Nc2ccc(-c3cccc(CO)c3)cc2CN1CCNC(=O)Cc1ccccc1 [Compound 599] |
| <30% | <30% | 41% | – | – | – | NC1=Nc2ccc(-c3cccc(C(F)(F)F)c3)cc2CN1CCNC(=O)Cc1ccccc1 [Compound 600] |
| – | – | – | 105% | 115% | 121% | CCCC(CNC(=O)C1CCCCC1)N1Cc2cc(Oc3ccccc3)ccc2N=C1N (stereo not drawn) [Compound 601] |
